Test results: US10385024B2, “Compounds and methods for inhibiting NHE-mediated antiport in the treatment of disorders associated with fluid retention or salt overload and gastrointestinal tract disorders” (Ardelyx, Inc., priority 2012, dated 2019)

Assays:
Rat NHE-3 [1] = target: T1, Rat NHE-3 (Rattus norvegicus, UniProt P26433); experiment: Cell-based assay of NHE-3 activity (persistent inhibition, after washout); settings: OK cells with rat NHE-3 gene, 60 min incubation, recovery initiated 40 min after compound washout
T1 construct: expressed in transfected cells; host or cells: Opossum kidney (OK) cells (ATCC), transfected by electroporation
T1 sequence (P26433 29-831): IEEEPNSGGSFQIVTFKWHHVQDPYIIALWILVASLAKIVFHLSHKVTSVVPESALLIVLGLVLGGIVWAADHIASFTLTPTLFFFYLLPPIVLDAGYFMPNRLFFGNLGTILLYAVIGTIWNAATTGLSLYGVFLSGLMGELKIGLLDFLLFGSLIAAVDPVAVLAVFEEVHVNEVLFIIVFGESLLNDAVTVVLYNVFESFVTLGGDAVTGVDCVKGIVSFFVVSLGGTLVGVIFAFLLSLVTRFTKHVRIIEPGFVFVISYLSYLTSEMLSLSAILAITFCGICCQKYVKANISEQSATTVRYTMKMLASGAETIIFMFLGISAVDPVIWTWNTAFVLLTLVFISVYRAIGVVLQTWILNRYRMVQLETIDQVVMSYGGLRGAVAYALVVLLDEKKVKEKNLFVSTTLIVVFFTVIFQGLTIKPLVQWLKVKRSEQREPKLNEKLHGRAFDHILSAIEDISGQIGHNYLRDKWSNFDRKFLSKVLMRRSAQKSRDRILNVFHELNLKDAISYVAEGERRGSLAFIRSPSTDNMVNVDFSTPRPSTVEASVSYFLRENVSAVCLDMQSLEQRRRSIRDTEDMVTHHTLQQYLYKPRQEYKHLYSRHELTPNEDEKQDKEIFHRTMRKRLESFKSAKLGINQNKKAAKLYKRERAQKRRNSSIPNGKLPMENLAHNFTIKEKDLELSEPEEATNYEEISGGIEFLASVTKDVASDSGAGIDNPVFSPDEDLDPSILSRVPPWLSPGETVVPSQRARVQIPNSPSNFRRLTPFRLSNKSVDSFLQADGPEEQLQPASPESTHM
How it was run: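 OK cells transiently expressing rat NHE-3 were exposed to 0-30 μM compound in NaCl-HEPES pH 7.4 for 60 min, then washed free of drug before NH4Cl/BCECF-AM loading and acid-loading in Na+-free choline buffer. Na+-dependent pH recovery rates (mean of ≥2 replicates) gave pIC50.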

Rat NHE-3 [2] = target: T1, Rat NHE-3; experiment: Cell-based assay of NHE-3 activity (rat NHE-3 prompt inhibition); settings: OK cells with rat NHE-3 gene, compound present during pH recovery
How it was run: (§1)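 Opossum kidney cells electroporated with rat or human NHE-3, loaded with 5 μM BCECF-AM in NH4Cl-HEPES pH 7.4 for 30 min at RT, then acidified 10 min in Na+-free choline HEPES. Na+-dependent pH recovery rates from BCECF fluorescence, averaged over ≥2 replicates, gave pIC50.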

human NHE-3 = target: T2, human NHE-3 (Homo sapiens, UniProt P48764); experiment: Cell-based assay of NHE-3 activity (human NHE3 inhibition assay); settings: OK cells with human NHE-3 gene, BCECF pH dye, 0-30 μM test compound
T2 construct: expressed in transfected cells; host or cells: Opossum kidney (OK) cells (ATCC), transfected by electroporation
T2 sequence (P48764 26-834): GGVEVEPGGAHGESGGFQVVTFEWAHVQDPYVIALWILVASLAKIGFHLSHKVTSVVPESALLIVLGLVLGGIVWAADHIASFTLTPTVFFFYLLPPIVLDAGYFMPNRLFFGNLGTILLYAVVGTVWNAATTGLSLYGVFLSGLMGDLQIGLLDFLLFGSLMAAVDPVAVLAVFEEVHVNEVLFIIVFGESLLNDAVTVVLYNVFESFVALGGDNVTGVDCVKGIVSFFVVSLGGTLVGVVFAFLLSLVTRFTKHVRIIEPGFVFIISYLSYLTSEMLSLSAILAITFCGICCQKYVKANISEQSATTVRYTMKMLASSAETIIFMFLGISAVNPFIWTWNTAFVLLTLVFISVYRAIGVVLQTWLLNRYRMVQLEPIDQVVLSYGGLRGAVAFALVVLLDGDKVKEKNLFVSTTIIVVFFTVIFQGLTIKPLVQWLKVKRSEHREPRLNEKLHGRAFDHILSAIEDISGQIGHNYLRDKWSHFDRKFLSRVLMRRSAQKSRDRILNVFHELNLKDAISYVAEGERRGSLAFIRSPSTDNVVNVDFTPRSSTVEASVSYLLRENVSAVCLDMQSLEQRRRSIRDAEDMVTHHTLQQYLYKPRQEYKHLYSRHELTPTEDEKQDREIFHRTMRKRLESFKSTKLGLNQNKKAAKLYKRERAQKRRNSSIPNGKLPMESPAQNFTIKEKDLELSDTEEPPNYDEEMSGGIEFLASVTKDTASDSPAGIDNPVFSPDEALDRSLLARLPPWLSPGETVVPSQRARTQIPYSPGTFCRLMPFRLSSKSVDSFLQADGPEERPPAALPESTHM
How it was run: as §1

[3] = tested on: absorption of sodium from the intestinal lumen; experiment: Inhibition of intestinal sodium absorption (urinary sodium and fecal form); assay type: in vivo, Sprague-Dawley rats; settings: rat; for response vs control in vivo at 3 mg/kg: 3 mg/kg oral gavage, urine 16 h post-dose, asterisks = significance vs vehicle (*P<0.05, **P<0.01, ***P<0.001), read-out: uNa (% of vehicle)
Description: Urinary sodium concentration and fecal form were measured to assess the ability of selected example compounds to inhibit the absorption of sodium from the intestinal lumen. Eight-week old Sprague-Dawley rats were purchased from Charles River Laboratories (Hollister, Calif.), were housed 2 per cage, and acclimated for at least 3 days before study initiation. Animals were fed Harlan Teklad Global 2018 rodent chow (Indianapolis, Ind.) and water ad libitum throughout the study and maintained in a standard light/dark cycle of 6 AM to 6 PM. On the day of the study, between 4 PM and 5 PM, a group of rats (n=6) were dosed via oral gavage with test compound at the dosage indicated or vehicle (water) at a volume of 10 mL/kg. After dose administration animals were placed in individual metabolic cages where they were also fed the same chow in meal form and watered ad libitum. At 16 h post-dose, the urine samples were collected and fecal form was assessed by two independent observations. Fecal forms were scored according to a common scale associated with increasing fecal water to the wettest observation in the cage's collection funnel (1, normal pellet; 2, pellet adhering to sides of collection funnel due to moisture; 3, loss of normal pellet shape; 4, complete loss of shape with a blotting pattern; 5, liquid fecal streams evident). A rat's fecal form score (FFS) was determined by averaging both observational scores for all rats within a group (n=6). In every study the vehicle group average was 1. For urine samples, the volumes were determined gravimetrically and centrifuged at 3,600×g. The supernatants were diluted 100-fold in deionized Milli-Q water then filtered through a 0.2 μm GHP Pall AcroPrep filter plate (Pall Life Sciences, Ann Arbor, Mich.) prior to analysis by ion chromatography. Ten microliters of each filtered extract was injected onto a Dionex ICS-3000 ion chromatograph system (Dionex, Sunnyvale, Calif.). Cations were separated by an isocratic method using 25 mM methanesulfonic acid as the eluent on an IonPac CS12A 2 mm i.d.×250 mm, 8 μm particle size cation exchange column (Dionex). Sodium was quantified using standards prepared from a cation standard mix containing Li^+, Na^+, NH4^+, K^+, Mg^2+, and Ca^2+ (Dionex). The mean mass of sodium urinated for every group in the 16 h period was determined with the vehicle group usually urinating approximately 21 mg sodium. The urine Na (uNa) for rats in the test groups were expressed as a percentage of the vehicle mean and the means were compared to that of the vehicle group by utilizing a one-way analysis of variance coupled with a Dunnett's post hoc test.

Structure (SMILES) | Rat NHE3 pIC50 (persistent) (Rat NHE-3 [1]) | Rat NHE3 pIC50 (prompt) (Rat NHE-3 [2]) | Human NHE3 pIC50 (human NHE-3) | response vs control in vivo at 3 mg/kg [3] | IC50 (Rat NHE-3 [1]; read-out: Rat NHE3 pIC50 (persistent) (converted)) | IC50 (Rat NHE-3 [2]; read-out: Rat NHE3 pIC50 (prompt) (converted)) | IC50 (human NHE-3; read-out: Human NHE3 pIC50 (converted)) | FFS ([3]; fecal form score, scale 1 (normal pellet) to 5 (liquid fecal streams), group average, 3 mg/kg oral, 16 h post-dose, vehicle = 1)
CN1Cc2c(Cl)cc(Cl)cc2[C@H](c2cccc(S(=O)(=O)NCCOCCOCCNC(=O)NCCCC(CCCNC(=O)NCCOCCOCCNS(=O)(=O)c3cccc([C@@H]4CN(C)Cc5c(Cl)cc(Cl)cc54)c3)(CCCNC(=O)NCCOCCOCCNS(=O)(=O)c3cccc([C@@H]4CN(C)Cc5c(Cl)cc(Cl)cc54)c3)NC(=O)COCC(=O)O)c2)C1 [Example 64] | C (C NHE3 pIC50 > 7) | C (C NHE3 pIC50 > 7) | C (C NHE3 pIC50 > 7) | 35 to 75% |  |  |  | 
CN1Cc2c(Cl)cc(Cl)cc2[C@H](c2cccc(S(=O)(=O)NCCOCCOCCN(C)C(=O)CCC(N)(CCC(=O)N(C)CCOCCOCCNS(=O)(=O)c3cccc([C@@H]4CN(C)Cc5c(Cl)cc(Cl)cc54)c3)CCC(=O)N(C)CCOCCOCCNS(=O)(=O)c3cccc([C@@H]4CN(C)Cc5c(Cl)cc(Cl)cc54)c3)c2)C1 [Example 67] | C (C NHE3 pIC50 > 7) | C (C NHE3 pIC50 > 7) | C (C NHE3 pIC50 > 7) | > 75% |  |  |  | 
CNC(=O)NC(CCC(=O)NCCOCCOCCNS(=O)(=O)c1cccc([C@@H]2CN(C)Cc3c(Cl)cc(Cl)cc32)c1)(CCC(=O)NCCOCCOCCNS(=O)(=O)c1cccc([C@@H]2CN(C)Cc3c(Cl)cc(Cl)cc32)c1)CCC(=O)NCCOCCOCCNS(=O)(=O)c1cccc([C@@H]2CN(C)Cc3c(Cl)cc(Cl)cc32)c1 [Example 26] | C (C NHE3 pIC50 > 7) | B (B NHE3 pIC50 5-7) | C (C NHE3 pIC50 > 7) | < 35% |  |  |  | 
CN1CCN(C(=O)NC(CCC(=O)NCCOCCOCCNS(=O)(=O)c2cccc([C@@H]3CN(C)Cc4c(Cl)cc(Cl)cc43)c2)(CCC(=O)NCCOCCOCCNS(=O)(=O)c2cccc([C@@H]3CN(C)Cc4c(Cl)cc(Cl)cc43)c2)CCC(=O)NCCOCCOCCNS(=O)(=O)c2cccc([C@@H]3CN(C)Cc4c(Cl)cc(Cl)cc43)c2)CC1 [Example 41] | C (C NHE3 pIC50 > 7) | B (B NHE3 pIC50 5-7) | C (C NHE3 pIC50 > 7) | < 35% |  |  |  | 
CC(O)C(CCC(=O)NCCOCCOCCNS(=O)(=O)c1cccc([C@@H]2CN(C)Cc3c(Cl)cc(Cl)cc32)c1)(CCC(=O)NCCOCCOCCNS(=O)(=O)c1cccc([C@@H]2CN(C)Cc3c(Cl)cc(Cl)cc32)c1)CCC(=O)NCCOCCOCCNS(=O)(=O)c1cccc([C@@H]2CN(C)Cc3c(Cl)cc(Cl)cc32)c1 (stereo partly drawn) [Example 73, N1,N7-bis(2-(2-(2-(3-((S)-6,8-dichloro-2-methyl-1,2,3,4-tetrahydroisoquinolin-4-yl)phenylsulfonamido)ethoxy)ethoxy)ethyl)-4-(3-(2-(2-(2-(3-((S)-6,8-dichloro-2-methyl-1,2,3,4-tetrahydroisoquinolin-4-yl)phenylsulfonamido)ethoxy)ethoxy)ethylamino)-3-oxopropyl)-4-(1-hydroxyethyl)heptanediamide] |  |  |  | 35 to 75% | < 100 nM | < 100 nM | < 100 nM | 2
CN1Cc2c(Cl)cc(Cl)cc2[C@H](c2cccc(S(=O)(=O)N(C)CCOCCOCCNC(=O)NCCCN(CCCNC(=O)NCCOCCOCCN(C)S(=O)(=O)c3cccc([C@@H]4CN(C)Cc5c(Cl)cc(Cl)cc54)c3)CCCNC(=O)NCCOCCOCCN(C)S(=O)(=O)c3cccc([C@@H]4CN(C)Cc5c(Cl)cc(Cl)cc54)c3)c2)C1 [Example 54] | C (C NHE3 pIC50 > 7) | B (B NHE3 pIC50 5-7) | C (C NHE3 pIC50 > 7) | > 75% |  |  |  | 
